Our source for the Activity values is ChEMBL document CHEMBL2073928, “Overlapping substrate specificities and tissue distribution of cytochrome P450 3A and P-glycoprotein: implications for drug delivery and activity in cancer chemotherapy” (Mol Carcinog, 1995).

What all share (assay type): functional, organism-based
Data set [1] concerns the target Multidrug resistance protein 1a (Rattus norvegicus) (UniProt Q6PSM0). Nature of the data set: TP_TRANSPORTER: Western in vivo Wistar rat, liver.
The target is the same in data set [2]. Nature of the data set: (§1) TP_TRANSPORTER: RT-PCR in vivo Wistar rat, liver.
Data set [3] deals with ATP-dependent translocase ABCB1 (Rattus norvegicus, UniProt P43245). The data set is described as §1.
Chain of ATP-dependent translocase ABCB1 (P43245 whole entry): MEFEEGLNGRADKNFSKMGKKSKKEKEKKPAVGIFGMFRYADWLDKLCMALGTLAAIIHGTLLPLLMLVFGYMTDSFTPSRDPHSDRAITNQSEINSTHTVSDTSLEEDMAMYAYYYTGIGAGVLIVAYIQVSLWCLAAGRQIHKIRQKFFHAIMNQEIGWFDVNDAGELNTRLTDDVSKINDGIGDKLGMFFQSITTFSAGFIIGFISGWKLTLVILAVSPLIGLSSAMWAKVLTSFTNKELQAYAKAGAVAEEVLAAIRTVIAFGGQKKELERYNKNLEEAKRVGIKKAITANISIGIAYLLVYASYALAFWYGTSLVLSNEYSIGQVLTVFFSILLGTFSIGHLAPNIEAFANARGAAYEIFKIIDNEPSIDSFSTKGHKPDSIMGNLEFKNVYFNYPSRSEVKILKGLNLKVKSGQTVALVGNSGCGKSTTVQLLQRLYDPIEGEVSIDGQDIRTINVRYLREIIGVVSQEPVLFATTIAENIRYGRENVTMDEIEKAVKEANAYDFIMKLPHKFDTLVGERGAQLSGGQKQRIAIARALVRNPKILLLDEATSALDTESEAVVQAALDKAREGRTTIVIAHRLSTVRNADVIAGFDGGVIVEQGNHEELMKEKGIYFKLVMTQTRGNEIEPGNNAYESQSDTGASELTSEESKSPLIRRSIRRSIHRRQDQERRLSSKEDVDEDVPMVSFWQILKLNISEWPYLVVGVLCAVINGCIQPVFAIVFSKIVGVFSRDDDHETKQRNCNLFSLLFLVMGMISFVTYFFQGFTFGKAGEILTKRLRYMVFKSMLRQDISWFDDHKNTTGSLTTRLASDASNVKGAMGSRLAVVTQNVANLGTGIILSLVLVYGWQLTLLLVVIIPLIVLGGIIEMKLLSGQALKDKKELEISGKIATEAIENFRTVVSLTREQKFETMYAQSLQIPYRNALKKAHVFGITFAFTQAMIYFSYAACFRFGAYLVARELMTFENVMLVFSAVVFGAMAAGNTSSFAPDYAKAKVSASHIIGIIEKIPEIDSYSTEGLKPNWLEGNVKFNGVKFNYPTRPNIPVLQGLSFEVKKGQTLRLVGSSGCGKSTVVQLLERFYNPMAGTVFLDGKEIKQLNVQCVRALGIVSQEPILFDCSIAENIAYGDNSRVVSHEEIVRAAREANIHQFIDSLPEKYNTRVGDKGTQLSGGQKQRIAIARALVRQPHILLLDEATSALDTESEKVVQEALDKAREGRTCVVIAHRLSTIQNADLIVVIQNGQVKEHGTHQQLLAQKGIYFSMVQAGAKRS

Molecules are shown by their SMILES.

Chain of Multidrug resistance protein 1a (Rattus norvegicus) (Q6PSM0 as listed by the source): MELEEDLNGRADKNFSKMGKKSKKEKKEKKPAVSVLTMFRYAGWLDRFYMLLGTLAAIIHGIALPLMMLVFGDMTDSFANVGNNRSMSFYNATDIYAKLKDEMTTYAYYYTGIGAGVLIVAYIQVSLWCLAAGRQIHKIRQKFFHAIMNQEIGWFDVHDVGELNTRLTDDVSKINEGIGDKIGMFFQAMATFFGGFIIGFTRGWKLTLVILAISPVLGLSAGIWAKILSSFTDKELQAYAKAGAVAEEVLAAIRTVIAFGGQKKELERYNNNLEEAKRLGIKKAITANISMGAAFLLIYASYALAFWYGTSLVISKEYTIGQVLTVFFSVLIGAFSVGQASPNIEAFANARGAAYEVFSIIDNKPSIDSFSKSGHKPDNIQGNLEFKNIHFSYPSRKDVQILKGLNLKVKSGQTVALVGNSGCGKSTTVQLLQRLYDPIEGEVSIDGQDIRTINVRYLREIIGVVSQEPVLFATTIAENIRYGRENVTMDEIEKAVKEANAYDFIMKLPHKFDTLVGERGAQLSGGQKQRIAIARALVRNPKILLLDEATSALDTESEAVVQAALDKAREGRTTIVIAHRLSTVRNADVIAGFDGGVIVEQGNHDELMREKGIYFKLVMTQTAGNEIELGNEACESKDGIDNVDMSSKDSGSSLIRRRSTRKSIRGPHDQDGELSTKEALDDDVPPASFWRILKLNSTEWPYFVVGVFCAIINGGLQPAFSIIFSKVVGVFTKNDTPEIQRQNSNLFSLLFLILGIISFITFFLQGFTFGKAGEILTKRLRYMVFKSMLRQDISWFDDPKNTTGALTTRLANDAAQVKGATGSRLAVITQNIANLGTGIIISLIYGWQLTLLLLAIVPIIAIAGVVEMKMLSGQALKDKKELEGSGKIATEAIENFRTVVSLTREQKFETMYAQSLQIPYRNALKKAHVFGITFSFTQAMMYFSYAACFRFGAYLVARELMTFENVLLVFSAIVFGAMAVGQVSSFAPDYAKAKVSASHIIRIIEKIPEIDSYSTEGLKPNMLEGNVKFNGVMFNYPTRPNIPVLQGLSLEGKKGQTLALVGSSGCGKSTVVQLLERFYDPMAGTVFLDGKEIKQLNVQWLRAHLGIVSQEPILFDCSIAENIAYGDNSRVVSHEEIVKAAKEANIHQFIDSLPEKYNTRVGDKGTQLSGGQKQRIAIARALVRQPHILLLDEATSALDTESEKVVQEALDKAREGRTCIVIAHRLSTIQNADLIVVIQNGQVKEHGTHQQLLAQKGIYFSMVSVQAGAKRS

Turning to `CC(=O)Nc1ccc2c(c1)Cc1ccccc1-2` [2-ACETYLAMINOFLUORENE], the Activity result in data set [1], in data set [2] and in data set [3] was “inducer [+]” in each case.
